According to patent publication US7682635B2, “Aqueous dispersions of nanometric or micrometric particles for encapsulating chemical compounds” (Centre National de la Recherche Scientifique (C.N.R.S.), priority 2002, dated 2010):

Test: Encapsulation of benzophenone in particles (ultracentrifugation, spectrophotometry of supernatant at 261 nm)
Format: physicochemical
Method: An aqueous solution of polymer P2 as defined in Example 1 (0.44 g/l) was produced, to which benzophenone was added with a molar ratio of benzophenone added: cyclodextrin equal to 1:1. This solution was left under agitation for 24 hours.
A composition of particles was prepared by mixture of 1 ml of the solution thus obtained with 1 ml of a solution of modified dextran DM3 as defined in Example 1 (0.44 g/l).
After mixture, the particles produced were ultracentrifuged (30 minutes at 40000 r.p.m. in a Beckman L7-55 centrifuge). The non-encapsulated benzophenone present in the supernatant was dosaged by spectrophotometry (absorption line at 261 nm).
The experiment was repeated using a molar ratio of benzophenone added: cyclodextrin equal to 1:3 for the solution of polymer P2.
The experiment was also repeated using modified dextran DM4 instead of DM3.
Finally, the experiment was also repeated using a molar ratio of benzophenone added cyclodextrin equal to 1:3 for the solution of polymer P2 and also replacing the modified dextran DM3 by DM4.

With `O=C(c1ccccc1)c1ccccc1` [benzophenone] the “benzophenone initially introduced found in the supernatant” value (4 cases: P2 with DM3 or DM4, benzophenone:cyclodextrin 1:1 or 1:3, after ultracentrifugation) was “less than 70%”, the “benzophenone content of particles” value (molar ratio benzophenone:cyclodextrin 1:1 in the initial solution of P2) was 1 % by mass and the “benzophenone content of particles” value (molar ratio benzophenone:cyclodextrin 1:3) was 3 % by mass.
